Assay results published in PubChem BioAssay (NCI).
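Following 48 hours of exposure in 96-well plates, responses at five concentrations were used to interpolate endpoints linearly. Definition used: TGI = concentration required for complete inhibition of growth.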

Key:
Assay in all cases: NCI-60 cell line screen, 48 h
OVCAR-4 ovarian = tested on: OVCAR-4 ovarian
T-47D breast = tested on: T-47D breast
ACHN renal = tested on: ACHN renal
SN12C renal = tested on: SN12C renal
NCI-H522 lung = tested on: NCI-H522 lung
MDA-MB-231 breast = tested on: MDA-MB-231 breast
U251 CNS = tested on: U251 CNS
NCI-H226 lung = tested on: NCI-H226 lung
HOP-62 NSCLC = tested on: HOP-62 NSCLC
HS 578T breast = tested on: HS 578T breast
OVCAR-5 ovarian = tested on: OVCAR-5 ovarian
HCC-2998 colon = tested on: HCC-2998 colon
SF-295 CNS = tested on: SF-295 CNS
A549 NSCLC = tested on: A549 NSCLC
UACC-62 melanoma = tested on: UACC-62 melanoma
K-562 leukemia = tested on: K-562 leukemia
BT-549 breast = tested on: BT-549 breast
LOX IMVI melanoma = tested on: LOX IMVI melanoma
SR leukemia = tested on: SR leukemia
UO-31 renal = tested on: UO-31 renal
HCT-116 colon = tested on: HCT-116 colon
MOLT-4 leukemia = tested on: MOLT-4 leukemia
HOP-92 NSCLC = tested on: HOP-92 NSCLC
CCRF-CEM leukemia = tested on: CCRF-CEM leukemia
NCI-H23 lung = tested on: NCI-H23 lung
DU-145 prostate = tested on: DU-145 prostate
OVCAR-8 ovarian = tested on: OVCAR-8 ovarian
HCT-15 colon = tested on: HCT-15 colon
SF-268 CNS = tested on: SF-268 CNS
MALME-3M melanoma = tested on: MALME-3M melanoma
COLO 205 colon = tested on: COLO 205 colon
RXF 393 renal = tested on: RXF 393 renal
OVCAR-3 ovarian = tested on: OVCAR-3 ovarian
SK-MEL-28 melanoma = tested on: SK-MEL-28 melanoma
SK-MEL-5 melanoma = tested on: SK-MEL-5 melanoma
IGROV1 ovarian = tested on: IGROV1 ovarian
SF-539 CNS = tested on: SF-539 CNS
HT29 colon = tested on: HT29 colon
RPMI-8226 leukemia = tested on: RPMI-8226 leukemia
PC-3 prostate = tested on: PC-3 prostate
CAKI-1 renal = tested on: CAKI-1 renal
MDA-MB-435 = tested on: MDA-MB-435
MDA-N = tested on: MDA-N
786-0 renal = tested on: 786-0 renal
MCF7 breast = tested on: MCF7 breast
SNB-19 CNS = tested on: SNB-19 CNS
SNB-75 CNS = tested on: SNB-75 CNS
TK-10 renal = tested on: TK-10 renal
NCI/ADR-RES ovarian = tested on: NCI/ADR-RES ovarian
KM12 colon = tested on: KM12 colon
EKVX NSCLC = tested on: EKVX NSCLC
SK-MEL-2 melanoma = tested on: SK-MEL-2 melanoma
SK-OV-3 ovarian = tested on: SK-OV-3 ovarian
HL-60(TB) leukemia = tested on: HL-60(TB) leukemia
A498 renal = tested on: A498 renal
SW-620 colon = tested on: SW-620 colon
NCI-H460 lung = tested on: NCI-H460 lung
M14 melanoma = tested on: M14 melanoma
UACC-257 melanoma = tested on: UACC-257 melanoma

Compound `NC(=O)c1cccc(N=c2oc3ccc(Br)cc3cc2-c2nc3ccccc3[nH]2)c1` has a TGI (OVCAR-4 ovarian) of 47.5 µM, a TGI (T-47D breast) of 29.2 µM and a TGI (ACHN renal) of 32.2 µM. For the same compound, the TGI (SN12C renal) was 34.4 µM, the TGI (NCI-H522 lung) was 77.4 µM and the TGI (MDA-MB-231 breast) was 25 µM. It also gave a TGI (U251 CNS) of 31 µM, a TGI (NCI-H226 lung) of 24.2 µM and a TGI (HOP-62 NSCLC) of 33.8 µM. The TGI (HS 578T breast) was 74.5 µM, the TGI (OVCAR-5 ovarian) was 30.2 µM and the TGI (HCC-2998 colon) was 34.9 µM. The TGI (SF-295 CNS) was 30.8 µM, the TGI (A549 NSCLC) was 26.4 µM and the TGI (UACC-62 melanoma) was 28.5 µM. It also gave a TGI (K-562 leukemia) of 96.1 µM, a TGI (BT-549 breast) of 30.4 µM and a TGI (LOX IMVI melanoma) of 37.5 µM. The TGI (SR leukemia) was over 100 µM, the TGI (UO-31 renal) was 20.8 µM and the TGI (HCT-116 colon) was 33.3 µM. The TGI (MOLT-4 leukemia) was 43.4 µM, the TGI (HOP-92 NSCLC) was 36.4 µM and the TGI (CCRF-CEM leukemia) was 17.3 µM. The TGI (NCI-H23 lung) was 32.7 µM, the TGI (DU-145 prostate) was 28.9 µM and the TGI (OVCAR-8 ovarian) was 28.2 µM. The TGI (HCT-15 colon) was 32.1 µM, the TGI (SF-268 CNS) was 43.6 µM and the TGI (MALME-3M melanoma) was 43 µM. For the same compound, the TGI (COLO 205 colon) was 35.8 µM, the TGI (RXF 393 renal) was 43.5 µM and the TGI (OVCAR-3 ovarian) was 32.1 µM. The TGI (SK-MEL-28 melanoma) was over 100 µM, the TGI (SK-MEL-5 melanoma) was 11.3 µM and the TGI (IGROV1 ovarian) was 33.6 µM. For the same compound, the TGI (SF-539 CNS) was 14.4 µM, the TGI (HT29 colon) was 34.7 µM and the TGI (RPMI-8226 leukemia) was 53.4 µM. The TGI (PC-3 prostate) was 29.2 µM, the TGI (CAKI-1 renal) was 34.3 µM and the TGI (MDA-MB-435) was 39.4 µM. For the same compound, the TGI (MDA-N) was 38.1 µM, the TGI (786-0 renal) was 31.4 µM and the TGI (MCF7 breast) was 31.9 µM. The TGI (SNB-19 CNS) was 28.5 µM, the TGI (SNB-75 CNS) was 23.6 µM and the TGI (TK-10 renal) was 30.7 µM. For the same compound, the TGI (NCI/ADR-RES ovarian) was 35.9 µM, the TGI (KM12 colon) was 49 µM and the TGI (EKVX NSCLC) was 32.6 µM. It also gave a TGI (SK-MEL-2 melanoma) of 38.5 µM, a TGI (SK-OV-3 ovarian) of 32.7 µM and a TGI (HL-60(TB) leukemia) of 51.3 µM. For the same compound, the TGI (A498 renal) was 35.8 µM, the TGI (SW-620 colon) was 47.7 µM and the TGI (NCI-H460 lung) was 43.6 µM. For the same compound, the TGI (M14 melanoma) was 32.3 µM and the TGI (UACC-257 melanoma) was 43.4 µM.
`O=[N+]([O-])c1ccc(Oc2c(Cl)cc(S(=O)(=O)/N=C(\NO)Nc3ccc(Cl)cc3)cc2Cl)c(Cl)c1` was tested, and the TGI (OVCAR-4 ovarian) was 25.9 µM, the TGI (T-47D breast) was 67.7 µM and the TGI (ACHN renal) was 28.2 µM. The TGI (SN12C renal) was 27.4 µM, the TGI (NCI-H522 lung) was 26.4 µM and the TGI (MDA-MB-231 breast) was 36.7 µM. The TGI (U251 CNS) was 30.8 µM, the TGI (NCI-H226 lung) was 48.3 µM and the TGI (HOP-62 NSCLC) was 30.3 µM. For the same compound, the TGI (HS 578T breast) was 36 µM, the TGI (OVCAR-5 ovarian) was 35.5 µM and the TGI (HCC-2998 colon) was 31.2 µM. The TGI (SF-295 CNS) was 31.1 µM, the TGI (A549 NSCLC) was 32.1 µM and the TGI (UACC-62 melanoma) was 27.5 µM. The TGI (K-562 leukemia) was 35 µM, the TGI (BT-549 breast) was 29 µM and the TGI (LOX IMVI melanoma) was 37.8 µM. The TGI (SR leukemia) was 32.6 µM, the TGI (UO-31 renal) was 26.5 µM and the TGI (HCT-116 colon) was 26.2 µM. The TGI (MOLT-4 leukemia) was 25.6 µM, the TGI (HOP-92 NSCLC) was 31.2 µM and the TGI (CCRF-CEM leukemia) was 98.4 µM. For the same compound, the TGI (NCI-H23 lung) was 34.5 µM, the TGI (DU-145 prostate) was 26.8 µM and the TGI (OVCAR-8 ovarian) was 54.1 µM. The TGI (HCT-15 colon) was 32.1 µM, the TGI (SF-268 CNS) was 29.6 µM and the TGI (MALME-3M melanoma) was 28.3 µM. The TGI (COLO 205 colon) was 35.5 µM, the TGI (RXF 393 renal) was 26.5 µM and the TGI (OVCAR-3 ovarian) was 24.7 µM. For the same compound, the TGI (SK-MEL-28 melanoma) was 47.6 µM, the TGI (SK-MEL-5 melanoma) was 31.3 µM and the TGI (SF-539 CNS) was 36.7 µM. The TGI (HT29 colon) was 30.5 µM, the TGI (RPMI-8226 leukemia) was 34.3 µM and the TGI (PC-3 prostate) was 26.7 µM. It also gave a TGI (CAKI-1 renal) of 28.3 µM, a TGI (MDA-MB-435) of 31.3 µM and a TGI (MDA-N) of 28.9 µM. The TGI (786-0 renal) was 27.8 µM, the TGI (MCF7 breast) was 34 µM and the TGI (SNB-19 CNS) was 30.6 µM. For the same compound, the TGI (TK-10 renal) was 29.7 µM, the TGI (NCI/ADR-RES ovarian) was 51.4 µM and the TGI (KM12 colon) was 28.4 µM. The TGI (EKVX NSCLC) was 28 µM, the TGI (SK-MEL-2 melanoma) was 35.7 µM and the TGI (HL-60(TB) leukemia) was 51.7 µM. It also gave a TGI (A498 renal) of 25.9 µM, a TGI (SW-620 colon) of 80.3 µM and a TGI (NCI-H460 lung) of 37.2 µM. For the same compound, the TGI (M14 melanoma) was 30.1 µM and the TGI (UACC-257 melanoma) was 30.8 µM.
`CCOC(=O)CCSc1nc2ccc(I)cc2c(=O)n1Cc1ccccc1` showed a TGI (OVCAR-4 ovarian) of over 77.1 µM, a TGI (T-47D breast) of over 100 µM and a TGI (ACHN renal) of over 83 µM. It also gave a TGI (SN12C renal) of over 100 µM, a TGI (NCI-H522 lung) of 52.5 µM and a TGI (MDA-MB-231 breast) of over 100 µM. The TGI (U251 CNS) was over 100 µM, the TGI (NCI-H226 lung) was over 100 µM and the TGI (HOP-62 NSCLC) was over 75.2 µM. The TGI (HS 578T breast) was over 81.9 µM, the TGI (OVCAR-5 ovarian) was over 100 µM and the TGI (HCC-2998 colon) was over 71.2 µM. For the same compound, the TGI (SF-295 CNS) was over 73.3 µM, the TGI (A549 NSCLC) was over 100 µM and the TGI (UACC-62 melanoma) was over 93.5 µM. It also gave a TGI (K-562 leukemia) of over 100 µM, a TGI (BT-549 breast) of over 94.4 µM and a TGI (LOX IMVI melanoma) of over 77.3 µM. The TGI (SR leukemia) was 29.5 µM, the TGI (UO-31 renal) was 1.42 µM and the TGI (HCT-116 colon) was over 74.2 µM. The TGI (HOP-92 NSCLC) was 53.5 µM, the TGI (CCRF-CEM leukemia) was 67.4 µM and the TGI (NCI-H23 lung) was over 64.4 µM. It also gave a TGI (DU-145 prostate) of over 100 µM, a TGI (OVCAR-8 ovarian) of over 100 µM and a TGI (HCT-15 colon) of over 77.7 µM. For the same compound, the TGI (SF-268 CNS) was over 91.2 µM, the TGI (MALME-3M melanoma) was 48.4 µM and the TGI (COLO 205 colon) was 26.9 µM. The TGI (RXF 393 renal) was over 100 µM, the TGI (OVCAR-3 ovarian) was over 84.5 µM and the TGI (SK-MEL-28 melanoma) was over 100 µM. For the same compound, the TGI (SK-MEL-5 melanoma) was 32 µM, the TGI (IGROV1 ovarian) was over 100 µM and the TGI (SF-539 CNS) was over 100 µM. It also gave a TGI (HT29 colon) of over 100 µM, a TGI (RPMI-8226 leukemia) of 33.5 µM and a TGI (PC-3 prostate) of over 100 µM. It also gave a TGI (CAKI-1 renal) of 9.59 µM, a TGI (MDA-MB-435) of over 89 µM and a TGI (MDA-N) of over 86.7 µM. For the same compound, the TGI (786-0 renal) was over 96.8 µM, the TGI (MCF7 breast) was over 100 µM and the TGI (SNB-19 CNS) was over 100 µM. The TGI (SNB-75 CNS) was over 100 µM, the TGI (TK-10 renal) was over 88.2 µM and the TGI (NCI/ADR-RES ovarian) was over 60.3 µM. It also gave a TGI (KM12 colon) of over 100 µM, a TGI (EKVX NSCLC) of 82.4 µM and a TGI (SK-MEL-2 melanoma) of over 100 µM. It also gave a TGI (SK-OV-3 ovarian) of over 100 µM, a TGI (HL-60(TB) leukemia) of over 73.7 µM and a TGI (A498 renal) of over 79.2 µM. It also gave a TGI (SW-620 colon) of over 100 µM, a TGI (NCI-H460 lung) of over 100 µM and a TGI (M14 melanoma) of over 100 µM. It also gave a TGI (UACC-257 melanoma) of over 92.2 µM.
